{
  "source": "patent US20250298027A1",
  "about": "“METHOD OF EVALUATING SMALL MOLECULE DISTRIBUTION USING TELLUROPHENE ANALOGUES” (THE GOVERNING COUNCIL OF THE UNIVERSITY OF TORONTO, priority 2022, published 2025)",
  "tested_on": "HL-60 cells",
  "test": "Competitive binding / cell labelling by mass cytometry (CyTOF) in HL-60 cells",
  "assay_type": "cell-based",
  "experimental": "To determine if cellular labelling with 1 was dependent on the presence of Top2-DNA binding sites a competitive binding MC experiment was carried out using Teniposide. HL-60 cells were treated with teniposide (10 μM) for two hours to saturate intracellular Top2-DNA ternary complexes with an unlabelled ligand, next 1 (2 or 10 μM) was introduced into the cell media and the suspension was gently mixed. After two hours, cells were harvested and washed three times with PBS. Cells were then fixed and permeabilized, followed by DNA staining with Ir-intercalator. Cell pellets were analyzed by MC for ^130Te content (FIG. 6).\nAdditionally, co-incubation experiments were conducted where HL-60 cells were treated with a cocktail of 1 (2 μM) and either 2, 10, or 20 μM teniposide (FIG. 6B). […] Without wishing to be bound by theory, it is hypothesized that the lack of competitive labelling observed in these experiments may be due to a combination of inhibition of Top2 and a considerable degree of non-specific binding with other cellular components. Several reports have documented the non-specific accumulation of etoposide and teniposide via oxidation catalyzed by cytochrome P450-dependent monooxygenases, peroxidases and tyrosinase enzymes. […] It is also plausible these reactive species modify other intracellular proteins, thus contributing to drug accumulation inside cells, but in a promiscuous and irreversible manner. […] In this case, the non-specific binding may dominate the target binding of teniposide, and likely its analogue Te-teniposide 1.\nCYTOF® labelling: For pre-saturation experiment, 3×10^6 HL-60 cells (5×10^5 cells/mL) were incubated with appropriate teniposide concentration for 2 hours at 37° C. in a humidified atmosphere of 5% CO2 in air. Compound 1 was pipetted into the cell suspension and gently mixed. Cells were further incubated for 2 hours and then centrifuged for 6 min at 300×g, and the media was aspirated. For controls, HL-60 cells were treated with teniposide or compound 1 for 4 hours consecutively. […] Samples were then injected into the CYTOF® Helios™ and analyzed.",
  "data": [
    {"smiles": "COc1cc([C@@H]2c3cc4c(cc3[C@@H](OC3OC5COC(c6ccc[te]6)OC5C(O)C3O)[C@H]3COC(=O)C23)OCO4)cc(OC)c1O", "note": "(stereo partly drawn) [Compound 1, Tellurium-labelled teniposide]", "values": [
      {"measurement": "competition for Top2 in co-incubation", "setting": "1 (2 μM) with 2, 10 or 20 μM teniposide", "value": "no competition"},
      {"measurement": "cell labelling (^130Te) by MC", "setting": "2 and 10 μM", "value": "readily detected"},
      {"measurement": "reduction of ^130Te signal in cells pretreated with unlabeled teniposide", "setting": "teniposide 10 μM for two hours, then 1 at 2 or 10 μM for two hours", "value": "not observed"}
    ]}
  ]
}
